Reference: patent US20260009799A1, “CA-IX TARGETING FLUORESCENT PROBES” (BRACCO IMAGING S.P.A., priority 2022, published 2026)

Experiments:
[1] = target: T1, CA-IX on HT-29 cells (Homo sapiens, UniProt Q16790); test: Cellular specificity: binding to HT-29 cells in competition with MSC8 antibody; type: cell-based; settings: compound 1 0.125 μM, MSC8 0.0125/0.125/1.25/2.5 μM, on ice
T1 construct: CA-IX, expressed in its physiological environment at the cell-surface; host or cells: HT-29 human colorectal adenocarcinoma cells
Method: HT-29 cells were co-incubated, on ice in suspension, with compound 1, at the established concentration of 0.125 μM, and different concentrations of MSC8 (0.1×, 1×, 10× and 20× with respect to compound 1, i.e. 0.0125/0.125/1.25/2.5 μM); in addition, HT-29 cells were incubated with either compound 1 alone, or each concentration of MSC8 alone as well. The resulting binding of both compound 1 and MSC8 was then recorded as cell-associated fluorescence intensity, using for MSC8 a secondary antibody labelled with Alexa Fluor™ 488 (ThermoFischer), and compared to the one resulting from both compounds alone, taken as 100%.

[2] = tested on: HT-29 excised tumors and tissues; test: Ex vivo biodistribution in excised tumors and organs; set-up: species or system mice; settings: for ex vivo TBR, times higher than respective References 2 and 3: 1 nmol/mouse, 24 hours; for Organ-to-muscle ratio, intestine (mean ± SD) / Organ-to-muscle ratio, kidney (mean ± SD) / Organ-to-muscle ratio, liver (mean ± SD) / Organ-to-muscle ratio, skin (mean ± SD) / Organ-to-muscle ratio, spleen (mean ± SD) / Organ-to-muscle ratio, stomach (mean ± SD): ex vivo, 24 hours after administration; for Organ-to-muscle ratio, intestine (mean ± SD) / Organ-to-muscle ratio, kidney (mean ± SD) / Organ-to-muscle ratio, liver (mean ± SD) / Organ-to-muscle ratio, skin (mean ± SD) / Organ-to-muscle ratio, spleen (mean ± SD) / Organ-to-muscle ratio, stomach (mean ± SD) / ex vivo TBR (mean ± SD), HT-29 tumor: 1 nmol; for ex vivo TBR (mean ± SD), HT-29 tumor: samples collected 24 hours after administration, tumor vs hind limb muscle
Method: The ex vivo biodistribution of the representative compounds 1 and 2 and of the reference compounds (at 1 nmol/mouse) was evaluated in HT-29 excised tumors and tissues at the end of the in vivo OI sessions 24 hours post intravenous administration. At the end of the in vivo experiment, animals were euthanized by overdose of gaseous anesthesia followed by cervical dislocation. Tumor tissue, muscle, and other organs of interest were removed for ex vivo fluorescent signal measurements. The fluorescence signal intensity was measured by the IVIS Spectrum system. Regions of interest (ROIs) were drawn around each organ and tumor using the Living Image Software (PerkinElmer) and evaluating signal intensity in the tissues (expressed as Average Radiant Efficiency). The ratio between the fluorescence signal in the organs and tumor was then calculated to assess the contrast to hind limb muscle (representing the background).

[3] = tested on: hypoxic HT-29 colorectal tumor, subcutaneously induced; test: In vivo tumor optical imaging (IVIS Spectrum), tumor-to-background ratio; set-up: species or system mice; settings: 24 hours after intravenous administration, 1 nmol/mouse, tumor vs hind limb muscle
Method: HT-29 cells were collected and washed once with serum-free medium. Five million HT-29 cells were suspended in 0.1 mL serum-free medium and injected subcutaneously in the right flank of 5 weeks old mice. Tumor development was followed by caliper measurement twice a week, from 7 days after inoculation. Tumor volume was calculated according to the formula: (L*W2)/2, where L and W are the maximum length and width of the tumor.
Optical Imaging experiments on HT-29 tumor bearing animals were performed after administration of Reference 1, 2 and 3, and compounds 1 and 2, all at a dose of 1 nmol/mouse in an administration volume of 0.1 mL (corresponding to about 5 mL/kg, considering a 20 g-mouse) at an injection rate of about 1 mL/min, by the IVIS Spectrum system when the tumor reached at least 200 mm^3 volume. For each group, in vivo OI experiments were performed at 0.5, 1, 2, 3, 4, 6 and 24 hours after intravenous administration of the fluorescent compounds. During imaging experiments animals were maintained under gaseous anesthesia. Regions of interest (ROIs) were drawn on the tumor and on a reference background healthy region (hind limb muscle) of the mouse for each fluorescence image at every time point to evaluate signal intensity in the tissues (expressed as Average Radiant Efficiency). The ratio between the fluorescence signal in the tumor and in the background healthy tissue (tumor-to-background ratio, TBR) was then calculated to assess the contrast.
All the compounds of the invention and the References were tested at a dose of 1 nmol/mouse.

Row | binding of compound 1 to HT-29 cells in presence of MSC8 [1] | Organ-to-muscle ratio, intestine (mean ± SD) [2] | Organ-to-muscle ratio, kidney (mean ± SD) [2] | Organ-to-muscle ratio, liver (mean ± SD) [2] | Organ-to-muscle ratio, skin (mean ± SD) [2] | Organ-to-muscle ratio, spleen (mean ± SD) [2] | Organ-to-muscle ratio, stomach (mean ± SD) [2] | Compound | ex vivo TBR, times higher than respective References 2 and 3 [2] | ex vivo TBR (mean ± SD), HT-29 tumor [2] | in vivo TBR (mean ± SD) [3]
1 | reduced in a dose-dependent manner | 1.8 ± 0.4 | 6.0 ± 1.1 | 4.2 ± 0.7 | 1.2 ± 0.1 | 0.9 ± 0.2 | 5.4 ± 0.8 | CC1(C)C(/C=C/C2=C(Oc3ccc(S(=O)(=O)O)cc3)C(=C/C=C3/N(CCCCCC(=O)NCCCCCCCC(=O)Nc4nnc(S(N)(=O)=O)s4)c4ccc(C(=O)NC[C@H](O)[C@@H](O)[C@H](O)[C@H](O)CO)cc4C3(C)C)/CCC2)=[N+](CCCCS(=O)(=O)[O-])c2ccc(C(=O)NC[C@H](O)[C@@H](O)[C@H](O)[C@H](O)CO)cc21 [Compound 1] | about 1.5 times | 13.4 ± 2.2 | 5.2 ± 1.0
2 | – | 1.6 ± 0.3 | 7.1 ± 1.5 | 3.3 ± 0.4 | 1.5 ± 0.3 | 1.0 ± 0.1 | 6.8 ± 1.3 | CC(CC[N+]1=C(/C=C/C=C/C=C/C=C2/N(CCCCCC(=O)NCCCCCCCC(=O)Nc3nnc(S(N)(=O)=O)s3)c3ccc(C(=O)NC[C@H](O)[C@@H](O)[C@H](O)[C@H](O)CO)cc3C2(C)C)C(C)(C)c2cc(C(=O)NC[C@H](O)[C@@H](O)[C@H](O)[C@H](O)CO)ccc21)S(=O)(=O)[O-] (stereo partly shown) [Compound 2] | about 1.5 times | 23.1 ± 6.7 | 10.1 ± 3.1
